Experimental data taken from patent US20240066136A1, “MODIFIED PROTEINS AND PROTEIN DEGRADERS” (Cullgen (Shanghai), Inc., priority 2020, published 2024).

The compounds below were run against Human DDB1 (Homo sapiens (Human), UniProt Q16531) (assay: Surface plasmon resonance (SPR) binding assay to immobilized His-DDB1). Details: SPR, steady state affinity model, 25° C.; read-out: Binding (DDB1 binder activities, Kd).
Sequence of Human DDB1 (Q16531 whole entry): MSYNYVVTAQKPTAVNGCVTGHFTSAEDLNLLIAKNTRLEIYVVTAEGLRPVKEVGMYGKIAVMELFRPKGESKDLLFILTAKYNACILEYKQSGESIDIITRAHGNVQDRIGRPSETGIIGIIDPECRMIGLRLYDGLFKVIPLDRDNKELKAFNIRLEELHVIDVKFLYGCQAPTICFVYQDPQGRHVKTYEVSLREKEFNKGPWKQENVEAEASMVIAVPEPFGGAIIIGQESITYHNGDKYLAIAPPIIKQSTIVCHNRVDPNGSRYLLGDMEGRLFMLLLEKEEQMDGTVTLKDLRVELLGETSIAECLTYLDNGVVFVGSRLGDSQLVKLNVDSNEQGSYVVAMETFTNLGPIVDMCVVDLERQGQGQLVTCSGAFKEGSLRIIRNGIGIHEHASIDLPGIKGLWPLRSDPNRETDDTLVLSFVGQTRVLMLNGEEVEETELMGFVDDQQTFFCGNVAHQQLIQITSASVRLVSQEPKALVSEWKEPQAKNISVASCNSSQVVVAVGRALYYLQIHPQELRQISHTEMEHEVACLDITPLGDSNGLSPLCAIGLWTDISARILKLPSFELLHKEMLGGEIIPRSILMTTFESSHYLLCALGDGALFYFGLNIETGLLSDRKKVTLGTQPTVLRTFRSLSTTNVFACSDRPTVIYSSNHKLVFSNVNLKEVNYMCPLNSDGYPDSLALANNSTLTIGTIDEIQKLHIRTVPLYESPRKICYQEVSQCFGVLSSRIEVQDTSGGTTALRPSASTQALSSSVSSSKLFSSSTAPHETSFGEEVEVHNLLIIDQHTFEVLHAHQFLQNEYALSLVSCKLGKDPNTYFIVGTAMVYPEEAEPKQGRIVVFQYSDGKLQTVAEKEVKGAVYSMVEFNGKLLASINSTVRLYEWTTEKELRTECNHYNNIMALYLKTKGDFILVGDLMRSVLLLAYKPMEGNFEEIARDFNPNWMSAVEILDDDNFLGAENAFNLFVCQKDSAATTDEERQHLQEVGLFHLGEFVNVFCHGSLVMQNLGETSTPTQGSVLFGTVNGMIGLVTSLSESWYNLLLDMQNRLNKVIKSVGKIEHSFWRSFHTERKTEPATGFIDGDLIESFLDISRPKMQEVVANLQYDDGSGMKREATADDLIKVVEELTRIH
Method: The binding affinities of heterobifunctional compounds to DDB1 were determined by SPR assay. Purified His-DDB1 proteins were immobilized on a CM5 sensor chip, and a dose range of compound solutions were injected in multi-cycle kinetic format. Data were fit to steady state model and gave equivalent dissociation constants (KD).
Protein Expression and Purification. Human DDB1 (UniPro: Q16531) coding sequences were cloned into pFastBacHTB vector and were expressed in High5 cells using Bac-to-Bac baculovirus expression system (Thermo Fisher Scientific). […] DDB1 proteins were obtained from supernatant of cell lysates and purified through sequential application of Ni affinity (Ni-NTA column. Bio-Rad), and size-exclusion (Superdex 200 16/600GL column, GE Healthcare) column chromatography.
Surface plasmon resonance (SPR) binding assay. All SPR studies were performed on a Biacore X100 plus or T200 instrument (GE Healthcare). Immobilization of purified His-DDB1 was carried out at 25° C. using a CM5 sensor chip. The surface was pre-equilibrated in HBS-EP running buffer (10 mM HEPES, pH7.4, 150 mM NaCl, 3 mM EDTA, 0.05% P20), then activated with EDC/NHS. His-DDB1 proteins were immobilized by amine coupling to a density of 11,000-13,000 resonance units (RUs) on flow cell FC2, whereas flow cell FC1 was used as reference. Both DDB1 immobilized and reference surfaces were deactivated with 1M ethanolamine.
All interaction experiments were performed at 25° C. […] Compound Solutions were injected individually in multi-cycle kinetic format without regeneration (flow rate […], association time 120 s, dissociation time 120 s). Sensorgrams from reference surfaces and blank injections were subtracted from the raw data (double-referencing) and the data was solvent-corrected prior to analysis. All data were fit to steady state affinity model using Biacore Evaluation Software and gave equivalent dissociation constants (KD).
For `CCCCNc1ccc(C(=O)Nc2ncc([N+](=O)[O-])s2)c(-c2ccccc2)c1` [B-110, 5-(Butylamino)-N-(5-nitrothiazol-2-yl)-[1,1′-biphenyl]-2-carboxamide], the Kd was under 20 µM.
In the case of `CCCCNc1ccc(C(=O)Nc2nc(C)c([N+](=O)[O-])s2)c(-c2ccccc2)c1` [B-111, 5-(Butylamino)-N-(4-methyl-5-nitrothiazol-2-yl)-[1,1′-biphenyl]-2-carboxamide], the Kd is reported as 20 to 100 µM.
Compound `CCCCNc1ccc(C(=O)Nc2nc(Cl)c([N+](=O)[O-])s2)c(-c2ccccc2)c1` [B-112, 5-(Butylamino)-N-(4-chloro-5-nitrothiazol-2-yl)-[1,1′-biphenyl]-2-carboxamide] has a Kd of under 20 µM.
`CCCCNc1ccc(C(=O)Nc2nc(Br)c([N+](=O)[O-])s2)c(-c2ccccc2)c1` [B-113, N-(4-Bromo-5-nitrothiazol-2-yl)-5-(butylamino)-[1,1′-biphenyl]-2-carboxamide] gave a Kd of 20 to 100 µM.
With `CCCCNc1ccc(C(=O)Nc2nc(C(F)(F)F)c([N+](=O)[O-])s2)c(-c2ccccc2)c1` [B-114, 5-(Butylamino)-N-(5-nitro-4-(trifluoromethyl)thiazol-2-yl)-[1,1′-biphenyl]-2-carboxamide] the Kd was under 20 µM.
`CCCCNc1ccc(C(=O)Nc2nc(C3CC3)c([N+](=O)[O-])s2)c(-c2ccccc2)c1` [B-115, 5-(Butylamino)-N-(4-cyclopropyl-5-nitrothiazol-2-yl)-[1,1′-biphenyl]-2-carboxamide] gave a Kd of over 100 µM.
In the case of `CCCCNc1ccc(C(=O)Nc2ncc(Br)s2)c(-c2ccccc2)c1` [B-117, N-(5-Bromothiazol-2-yl)-5-(butylamino)-[1,1′-biphenyl]-2-carboxamide], the Kd is reported as 20 to 100 µM.
In the case of `CCCCNc1ccc(C(=O)Nc2ncc(C(F)(F)F)s2)c(-c2ccccc2)c1` [B-118, 5-(Butylamino)-N-(5-(trifluoromethyl)thiazol-2-yl)-[1,1′-biphenyl]-2-carboxamide], the Kd is reported as 20 to 100 µM.
`CCCCNc1ccc(C(=O)Nc2ncc(C#N)s2)c(-c2ccccc2)c1` [B-119, 5-(Butylamino)-N-(5-cyanothiazol-2-yl)-[1,1′-biphenyl]-2-carboxamide] was tested, and the Kd was 20 to 100 µM.
Compound `CCCCNc1ccc(C(=O)Nc2ncc(-c3ccccc3)s2)c(-c2ccccc2)c1` [B-120, 5-(Butylamino)-N-(5-phenylthiazol-2-yl)-[1,1′-biphenyl]-2-carboxamide] has a Kd of 20 to 100 µM.
Work on `CC(=O)Nc1ccccc1C(=O)Nc1ccncc1` [B-121, 2-Acetamido-N-(pyridin-4-yl)benzamide] yielded a Kd of 20 to 100 µM.
`CC(=O)Nc1ccccc1C(=O)Nc1cccnc1` [B-122, 2-Acetamido-N-(pyridin-3-yl)benzamide] was tested, and the Kd was over 100 µM.
`CC(=O)Nc1ccccc1C(=O)Nc1ccccn1` [B-123, 2-Acetamido-N-(pyridin-2-yl)benzamide] gave a Kd of under 20 µM.
`CC(=O)Nc1ccccc1C(=O)Nc1cccc([N+](=O)[O-])c1` [B-124, 2-Acetamido-N-(3-nitrophenyl)benzamide] gave a Kd of under 20 µM.
With `CC(=O)Nc1ccccc1C(=O)Nc1ccc([N+](=O)[O-])cc1` [B-125, 2-Acetamido-N-(4-nitrophenyl)benzamide] the Kd was under 20 µM.
In the case of `CC(=O)Nc1ccccc1C(=O)Nc1ccc(C#N)s1` [B-128, 2-Acetamido-N-(5-cyanothiophen-2-yl)benzamide], the Kd is reported as 20 to 100 µM.
`CC(=O)Nc1ccccc1C(=O)Nc1ccc(C(C)C)s1` [B-129, 2-Acetamido-N-(5-isopropylthiophen-2-yl)benzamide] was tested, and the Kd was 20 to 100 µM.
Compound `CC(=O)Nc1ccccc1C(=O)Nc1ccc(-c2ccccc2)s1` [B-130, 2-Acetamido-N-(5-phenylthiophen-2-yl)benzamide] has a Kd of over 100 µM.
With `CCCCNc1ccc(C(=O)Nc2nc(-c3ccccc3)c([N+](=O)[O-])s2)c(-c2ccccc2)c1` [B-131, 5-(Butylamino)-N-(5-nitro-4-phenylthiazol-2-yl)-[1,1′-biphenyl]-2-carboxamide] the Kd was under 20 µM.
Work on `CCCCNc1ccc(C(=O)Nc2ccc([N+](=O)[O-])s2)c(C(C)C)c1` [B-134, 4-(Butylamino)-2-isopropyl-N-(5-nitrothiophen-2-yl)benzamide] yielded a Kd of over 100 µM.
With `CCCCNc1ccc(C(=O)Nc2ccc([N+](=O)[O-])s2)c(-c2ccccc2)c1` [B-135, 5-(Butylamino)-N-(5-nitrothiophen-2-yl)-[1,1′-biphenyl]-2-carboxamide] the Kd was 20 to 100 µM.
With `Nc1nc(N2CCOCC2)nc2c1CCN(Cc1cccc3cccnc13)C2` [B-136, 2-morpholino-7-(quinolin-8-ylmethyl)-5,6,7,8-tetrahydropyrido[3,4-d]pyrimidin-4-amine] the Kd was 20 to 100 µM.
Compound `c1ncc(Nc2nccc(C3CCCCN3)n2)cn1` (centres unmarked) [B-137, 4-(piperidin-2-yl)-N-(pyrimidin-5-yl)pyrimidin-2-amine] has a Kd of 20 to 100 µM.
For `CC(Nc1nc(-c2ccco2)nc2c1CCNCC2)c1nnc(N)s1` (centres unmarked) [B-138, 5-(1-((2-(furan-2-yl)-6,7,8,9-tetrahydro-5H-pyrimido[4,5-d]azepin-4-yl)amino)ethyl)-1,3,4-thiadiazol-2-amine], the Kd was 20 to 100 µM.
In the case of `CN(CCc1ccccc1)C1CCCN(C(=O)CCc2nc3ccccc3[nH]2)C1` (centres unmarked) [B-139, 3-(1H-benzo[d]imidazol-2-yl)-1-(3-(methyl(phenethyl)amino)piperidin-1-yl)propan-1-one], the Kd is reported as under 20 µM.
`O=C(Nc1cccc(N2CCOC2=O)c1)c1ccccc1C1CCCN1` (centres unmarked) [B-140, N-(3-(2-oxooxazolidin-3-yl)phenyl)-2-(pyrrolidin-2-yl)benzamide] showed a Kd of 20 to 100 µM.
For `CCc1nnc(CNC(=O)c2ccccc2C2CCNC2)s1` (centres unmarked) [B-141, N-((5-ethyl-1,3,4-thiadiazol-2-yl)methyl)-2-(pyrrolidin-3-yl)benzamide], the Kd was 20 to 100 µM.
`CC(C)C(=O)NCCC1CN(Cc2cccc3[nH]ccc23)Cc2ccnn21` (centres unmarked) [B-142, N-(2-(5-((1H-indol-4-yl)methyl)-4,5,6,7-tetrahydropyrazolo[1,5-a]pyrazin-7-yl)ethyl)isobutyramide] was tested, and the Kd was 20 to 100 µM.
Work on `CNC(=O)c1ccc(-c2cccc(O)c2)nc1NCC1CC1` [B-143, 2-((cyclopropylmethyl)amino)-6-(3-hydroxyphenyl)-N-methylnicotinamide] yielded a Kd of 20 to 100 µM.
Work on `CNC(=O)CCCNC(=O)c1nnn2c1CN(C(=O)OCCCCCC(C)C)CC2` [B-144, 6-methylheptyl3-((4-(methylamino)-4-oxobutyl)carbamoyl)-6,7-dihydro-[1,2,3]triazolo[1,5-a]pyrazine-5(4H)-carboxylate] yielded a Kd of 20 to 100 µM.
Work on `CCCNC(=O)c1cccc(C(=O)Nc2ncc([N+](=O)[O-])s2)c1NC(C)=O` [B-145, 2-Acetamido-N^1-(5-nitrothiazol-2-yl)-N^3-propylisophthalamide] yielded a Kd of 20 to 100 µM.
For `CCCCNc1ccc(C)c(C(=O)Nc2ncc([N+](=O)[O-])s2)c1` [B-148, 5-(Butylamino)-2-methyl-N-(5-nitrothiazol-2-yl)benzamide], the Kd was 20 to 100 µM.
`CCCCNc1ccc(NC(C)=O)c(C(=O)Nc2ncc([N+](=O)[O-])s2)c1` [B-149, 2-Acetamido-5-(butylamino)-N-(5-nitrothiazol-2-yl)benzamide] showed a Kd of 20 to 100 µM.
Compound `Cc1cc(Cl)ccc1C(=O)Nc1ncc([N+](=O)[O-])s1` [B-150, 4-chloro-2-methyl-N-(5-nitrothiazol-2-yl)benzamide] has a Kd of 20 to 100 µM.
In the case of `Cc1cc(C#N)ccc1C(=O)Nc1ncc([N+](=O)[O-])s1` [B-151, 4-Cyano-2-methyl-N-(5-nitrothiazol-2-yl)benzamide], the Kd is reported as over 100 µM.
With `Cc1cc(Br)ccc1C(=O)Nc1ncc([N+](=O)[O-])s1` [B-152, 4-Bromo-2-methyl-N-(5-nitrothiazol-2-yl)benzamide] the Kd was under 20 µM.
`Cc1cc(-c2ccccc2)ccc1C(=O)Nc1ncc([N+](=O)[O-])s1` [B-153, 3-Methyl-N-(5-nitrothiazol-2-yl)-[1,1′-biphenyl]-4-carboxamide] was tested, and the Kd was 20 to 100 µM.
Work on `CCCCNc1ccc(OCC)c(C(=O)Nc2ncc([N+](=O)[O-])s2)c1` [B-155, 5-(Butylamino)-2-ethoxy-N-(5-nitrothiazol-2-yl)benzamide] yielded a Kd of over 100 µM.
`COc1ccc(C(=O)Nc2ncc([N+](=O)[O-])s2)c(C)c1` [B-156, 4-Methoxy-2-methyl-N-(5-nitrothiazol-2-yl)benzamide] showed a Kd of over 100 µM.
In the case of `Cc1cccc(C)c1C(=O)Nc1ncc([N+](=O)[O-])s1` [B-157, 2,6-Dimethyl-N-(5-nitrothiazol-2-yl)benzamide], the Kd is reported as over 100 µM.
`CCc1ccc(C(=O)Nc2ncc([N+](=O)[O-])s2)c(C)c1` [B-158, 4-Ethyl-2-methyl-N-(5-nitrothiazol-2-yl)benzamide] showed a Kd of 20 to 100 µM.
Compound `CCOc1cccc(C)c1C(=O)Nc1ncc([N+](=O)[O-])s1` [B-159, 2-Ethoxy-6-methyl-N-(5-nitrothiazol-2-yl)benzamide] has a Kd of over 100 µM.
Compound `CCCCNc1ccc(C(=O)Nc2ncc([N+](=O)[O-])s2)c(OCC)c1` [B-160, 4-(Butylamino)-2-ethoxy-N-(5-nitrothiazol-2-yl)benzamide] has a Kd of 20 to 100 µM.
With `Cc1cc(NC(C)C)ccc1C(=O)Nc1ncc([N+](=O)[O-])s1` [B-161, 4-(Isopropylamino)-2-methyl-N-(5-nitrothiazol-2-yl)benzamide] the Kd was over 100 µM.
